According to publication PMC8219945 (Bioorganic Chemistry, 2021):
Read-outs that look alike come from different tables or passages of the source.

Test system: SARS-CoV-2
Assay: Antiviral IC50 determination
Format: cell-based, SARS-CoV-2 (hCoV-19/Egypt/NRC-03/2020)

Fc1ccc(-n2cc(COc3cc(C(F)(F)F)nc4ccccc34)nn2)cc1 [Compound 10a, 4-((1-(4-Fluorophenyl)-1H-1,2,3-triazol-4-yl)methoxy)-2-(trifluoromethyl)quinoline]
SI (selectivity index/therapeutical index): CC50/IC50 (CC50 VERO-E6 / IC50 SARS-CoV-2): 5.04

Cc1ccc(-n2cc(COc3cc(C(F)(F)F)nc4ccccc34)nn2)cc1 [Compound 10b, 4-((1-(p-Tolyl)-1H-1,2,3-triazol-4-yl)methoxy)-2-(trifluoromethyl)quinoline]
SI (selectivity index/therapeutical index): CC50/IC50 (CC50 VERO-E6 / IC50 SARS-CoV-2): 0.49

COc1ccc(-n2cc(COc3cc(C(F)(F)F)nc4ccccc34)nn2)cc1 [Compound 10c, 4-((1-(4-Methoxyphenyl)-1H-1,2,3-triazol-4-yl)methoxy)-2-(trifluoromethyl)quinoline]
SI (selectivity index/therapeutical index): CC50/IC50 (CC50 VERO-E6 / IC50 SARS-CoV-2): 0.03

FC(F)(F)c1cc(OCc2cn(-c3ccccc3Cl)nn2)c2ccccc2n1 [Compound 10d, 4-((1-(2-Chlorophenyl)-1H-1,2,3-triazol-4-yl)methoxy)-2-(trifluoromethyl)quinoline]
SI (selectivity index/therapeutical index): CC50/IC50 (CC50 VERO-E6 / IC50 SARS-CoV-2): 2.85

COc1ccccc1-n1cc(COc2cc(C(F)(F)F)nc3ccccc23)nn1 [Compound 10e, 4-((1-(2-Methoxyphenyl)-1H-1,2,3-triazol-4-yl)methoxy)-2-(trifluoromethyl)quinoline]
SI (selectivity index/therapeutical index): CC50/IC50 (CC50 VERO-E6 / IC50 SARS-CoV-2): 0.03

Cc1ccc(-n2cc(COc3cc(C(F)(F)F)nc4ccc(F)cc34)nn2)cc1 [Compound 10f, 6-Fluoro-4-((1-(p-tolyl)-1H-1,2,3-triazol-4-yl)methoxy)-2-(trifluoromethyl)quinoline]
SI (selectivity index/therapeutical index): CC50/IC50 (CC50 VERO-E6 / IC50 SARS-CoV-2): 1.71

Fc1ccc2nc(C(F)(F)F)cc(OCc3cn(-c4ccccc4Cl)nn3)c2c1 [Compound 10g, 4-((1-(2-Chlorophenyl)-1H-1,2,3-triazol-4-yl)methoxy)-6-fluoro-2-(trifluoromethyl)quinoline]
SI (selectivity index/therapeutical index): CC50/IC50 (CC50 VERO-E6 / IC50 SARS-CoV-2): 26.42

COc1ccccc1-n1cc(COc2cc(C(F)(F)F)nc3ccc(F)cc23)nn1 [Compound 10h, 6-Fluoro-4-((1-(2-methoxyphenyl)-1H-1,2,3-triazol-4-yl)methoxy)-2-(trifluoromethyl)quinoline]
SI (selectivity index/therapeutical index): CC50/IC50 (CC50 VERO-E6 / IC50 SARS-CoV-2): 0.76

Cc1ccc2nc(C(F)(F)F)cc(OCc3cn(-c4ccccc4Cl)nn3)c2c1 [Compound 10i, 4-((1-(2-Chlorophenyl)-1H-1,2,3-triazol-4-yl)methoxy)-6-methyl-2-(trifluoromethyl)quinoline]
SI (selectivity index/therapeutical index): CC50/IC50 (CC50 VERO-E6 / IC50 SARS-CoV-2): 4.51

COc1ccc2nc(C(F)(F)F)cc(OCc3cn(-c4ccc(F)cc4)nn3)c2c1 [Compound 10k, 4-((1-(4-Fluorophenyl)-1H-1,2,3-triazol-4-yl)methoxy)-6-methoxy-2-(trifluoromethyl)quinoline]
SI (selectivity index/therapeutical index): CC50/IC50 (CC50 VERO-E6 / IC50 SARS-CoV-2): 1.34

COc1ccc2nc(C(F)(F)F)cc(OCc3cn(-c4ccc(C)cc4)nn3)c2c1 [Compound 10l, 6-Methoxy-4-((1-(p-tolyl)-1H-1,2,3-triazol-4-yl)methoxy)-2-(trifluoromethyl)quinoline]
SI (selectivity index/therapeutical index): CC50/IC50 (CC50 VERO-E6 / IC50 SARS-CoV-2): 0.65

COc1ccc(-n2cc(Cn3c(C(F)(F)F)cc(=O)c4ccccc43)nn2)cc1 [Compound 11a, 1-((1-(4-Methoxyphenyl)-1H-1,2,3-triazol-4-yl)methyl)-2-(trifluoromethyl)quinolin-4(1H)-one]
SI (selectivity index/therapeutical index): CC50/IC50 (CC50 VERO-E6 / IC50 SARS-CoV-2): 3.69

COc1ccccc1-n1cc(Cn2c(C(F)(F)F)cc(=O)c3cc(C)ccc32)nn1 [Compound 11c, 1-((1-(2-Methoxyphenyl)-1H-1,2,3-triazol-4-yl)methyl)-6-methyl-2-(trifluoromethyl)quinolin-4(1H)-one]
SI (selectivity index/therapeutical index): CC50/IC50 (CC50 VERO-E6 / IC50 SARS-CoV-2): 3.15

CCN(CCO)CCCC(C)Nc1ccnc2cc(Cl)ccc12 (centres unmarked) [HCQ, hydroxychloroquine, reference compound]
SI (selectivity index/therapeutical index): CC50/IC50: 10.85
